tested on: batrachotoxin (BTX) binding site of the sodium channel; assay: Affinity for the batrachotoxin (BTX) binding site of the sodium channel, [3H]-batrachotoxinin A20 α-benzoate, rat cerebrocortex synaptosomes; conditions: test concentration not given

Structure (SMILES) | BTX inhibition (rat) % inhibition
O=C(NC1CCCC1)c1noc2c1CN(C(=O)NCc1ccc(F)cc1)CC2 [Example 2, 6,7-dihydro-4H-isoxazolo[4,5-c]pyridine-3,5-dicarboxylic acid 3-cyclopentyl amide 5-(4-fluorobenzyl amide)] | 83%
O=C(Nc1ccccc1)c1noc2c1CN(C(=O)Nc1ccc(OC(F)(F)F)cc1)CC2 [Example 3, 6,7-dihydro-4H-isoxazolo[4,5-c]pyridine-3,5-dicarboxylic acid 3-phenyl amide 5-[(4-trifluoromethoxy-phenyl) amide]] | 73%
Cc1ccc(NC(=O)N2CCc3onc(C(=O)NCCc4ccccc4)c3C2)cc1[N+](=O)[O-] [Example 4, 6,7-dihydro-4H-isoxazolo[4,5-c]pyridine-3,5-dicarboxylic acid 5-[(4-methyl-3-nitro-phenyl) amide] 3-(phenethyl amide)] | 80%
O=C(NCCc1ccccc1)c1noc2c1CN(C(=O)Nc1cccc(F)c1)CC2 [Example 8, 6,7-dihydro-4H-isoxazolo[4,5-c]pyridine-3,5-dicarboxylic acid 5-[(3-fluorophenyl) amide] 3-(phenethyl amide)] | 72%
Cc1ccc(NC(=O)N2CCc3onc(C(=O)NCc4cccs4)c3C2)cc1[N+](=O)[O-] [Example 9, 6,7-dihydro-4H-isoxazolo[4,5-c]pyridine-3,5-dicarboxylic acid 5-[(4-methyl-3-nitro-phenyl) amide] 3-[(thiophen-2-ylmethyl) amide]] | 43%
O=C(NCc1ccccc1)c1noc2c1CN(C(=O)NCCc1ccccc1)CC2 [Example 10, 6,7-dihydro-4H-isoxazolo[4,5-c]pyridine-3,5-dicarboxylic acid 3-benzyl amide 5-(phenethyl amide)] | 64%
N#Cc1cccc(NC(=O)N2CCc3onc(C(=O)NCc4cccs4)c3C2)c1 [Example 12, 6,7-dihydro-4H-isoxazolo[4,5-c]pyridine-3,5-dicarboxylic acid 5-[(3-cyano-phenyl) amide]3-[(thiophen-2-ylmethyl) amide]] | 47%
CCOc1ccc(NC(=O)N2CCc3onc(C(=O)Nc4ccccc4)c3C2)cc1 [Example 13, 6,7-dihydro-4H-isoxazolo[4,5-c]pyridine-3,5-dicarboxylic acid 5-[(4-ethoxy-phenyl) amide] 3-phenyl amide] | 58%
Cc1ccc(NC(=O)N2CCc3onc(C(=O)NCc4ccc(F)cc4)c3C2)cc1[N+](=O)[O-] [Example 14, 6,7-dihydro-4H-isoxazolo[4,5-c]pyridine-3,5-dicarboxylic acid 3-(4-fluorobenzyl amide) 5-[(4-methyl-3-nitro-phenyl) amide]] | 70%
CC(NC(=O)N1CCc2onc(C(=O)NCCc3ccccc3)c2C1)c1cccc2ccccc12 (stereo not shown) [Example 18, 6,7-dihydro-4H-isoxazolo[4,5-c]pyridine-3,5-dicarboxylic acid 5-[(1-naphthalen-1-yl-ethyl) amide]3-(phenethyl amide)] | 75%
CCOc1ccc(NC(=O)N2CCc3onc(C(=O)NCc4ccc(F)cc4)c3C2)cc1 [Example 21, 6,7-dihydro-4H-isoxazolo[4,5-c]pyridine-3,5-dicarboxylic acid 5-[(4-ethoxy-phenyl) amide] 3-(4-fluorobenzyl amide)] | 68%
COc1ccc(Cl)cc1NC(=O)N1CCc2onc(C(=O)NCCc3ccccc3)c2C1 [Example 22, 6,7-dihydro-4H-isoxazolo[4,5-c]pyridine-3,5-dicarboxylic acid 5-[(5-chloro-2-methoxyphenyl) amide] 3-(phenethyl amide)] | 56%
CCOC(=O)c1cccc(NC(=O)N2CCc3onc(C(=O)NCc4ccc(C)o4)c3C2)c1 [Example 23, 3-({3-[(5-methyl-furan-2-ylmethyl)-carbamoyl]-6,7-dihydro-4H-isoxazolo[4 5-c]pyridine-5-carbonyl}-amino)-benzoic acid ethyl ester] | 46%
O=C(O)CC1(CC(=O)N2CCc3onc(C(=O)Nc4ccccc4)c3C2)CCCC1 [Example 28, {1-[2-oxo-2-(3-phenylcarbamoyl-6,7-dihydro-4H-isoxazolo[4,5-c]pyridin-5-yl)-ethyl]-cyclopentyl}acetic acid] | 60%
O=C(c1noc2c1CN(S(=O)(=O)c1ccc(OC(F)(F)F)cc1)CC2)N(CCc1ccccc1)Cc1ccccc1 [Example 32, 5-(4-trifluoromethoxy-benzenesulfonyl)-4,5,6,7-tetrahydro-isoxazolo[4,5-c]pyridine-3-carboxylic acid benzyl-phenethyl amide] | 59%
O=C(NC1CCN(Cc2ccc3ccccc3c2)C1)c1noc2c1CN(S(=O)(=O)c1ccccc1)CC2 (stereo not shown) [Example 33, 5-benzenesulfonyl-4,5,6,7-tetrahydro-isoxazolo[4,5-c]pyridine-3-carboxylic acid (1-naphthalen-2-ylmethyl-pyrrolidin-3-yl) amide] | 93%

Structure (SMILES) | BTX inhibition (rat) % inhibition
O=C(c1noc2c1CN(S(=O)(=O)c1ccc(F)cc1)CC2)N1CCN(c2ncnc3sccc23)CC1 [Example 34] | 42%
O=C(NCCCc1ccccc1)c1noc2c1CN(S(=O)(=O)c1ccc(F)cc1)CC2 [Example 35, 5-(4-fluoro-benzenesulfonyl)-4,5,6,7-tetrahydro-isoxazolo[4,5-c]pyridine-3-carboxylic acid (3-phenyl-propyl) amide] | 59%
O=C(NC1CCN(Cc2ccc(C(F)(F)F)cc2)C1)c1noc2c1CN(S(=O)(=O)c1ccc(F)cc1)CC2 (stereo not shown) [Example 39, 5-(4-fluoro-benzenesulfonyl)-4,5,6,7-tetrahydro-isoxazolo[4,5-c]pyridine-3-carboxylic acid [1-(4-trifluoromethyl-benzyl)-pyrrolidin-3-yl]amide] | 79%
O=C(NC1CCCC1OCc1ccccc1)c1noc2c1CN(S(=O)(=O)c1cc(Cl)ccc1Cl)CC2 (stereo not shown) [Example 40, 5-(2,5-dichloro-benzenesulfonyl)-4,5,6,7-tetrahydro-isoxazolo[4,5-c]pyridine-3-carboxylic acid (2-benzyloxy-cyclopentyl) amide] | 65%
O=C(c1noc2c1CN(S(=O)(=O)c1ccc(F)cc1)CC2)N1CC=C(c2ccc(F)cc2)CC1 [Example 42, [5-(4-fluoro-benzenesulfonyl)-4,5,6,7-tetrahydro-isoxazolo[4,5-c]pyridin-3-yl]-[4-(4-fluorophenyl)-3,6-dihydro-2H-pyridin-1-yl]-methanone] | 54%
CC12CCC(C(=O)N3CCc4onc(C(=O)NCCN5CCCC5)c4C3)(OC1=O)C2(C)C (stereo not shown) [Example 51, 5-(4,7,7-trimethyl-3-oxo-2-oxa-bicyclo[2.2.1]heptane-1-carbonyl)-4,5,6,7-tetrahydro-isoxazolo[4,5-c]pyridine-3-carboxylic acid (2-pyrrolidin-1-yl-ethyl) amide] | 42%
O=C(NCCc1ccccc1Cl)c1noc2c1CN(S(=O)(=O)c1cc(Cl)ccc1Cl)CC2 [Example 52, 5-(2,5-dichloro-benzenesulfonyl)-4,5,6,7-tetrahydro-isoxazolo[4,5-c]pyridine-3-carboxylic acid [2-(2-chlorophenyl)-ethyl] amide] | 44%
O=C(c1noc2c1CN(S(=O)(=O)c1cc(Cl)ccc1Cl)CC2)N(CCc1ccccc1)Cc1ccccc1 [Example 59, 5-(2,5-dichloro-benzenesulfonyl)-4,5,6,7-tetrahydro-isoxazolo[4,5-c]pyridine-3-carboxylic acid benzyl-phenethyl amide] | 58%
O=C(NCCN1CCOCC1)c1noc2c1CN(S(=O)(=O)c1cc(Cl)c(Cl)s1)CC2 [Example 63, 5-(4,5-dichloro-thiophene-2-sulfonyl)-4,5,6,7-tetrahydro-isoxazolo[4,5-c]pyridine-3-carboxylic acid (2-morpholin-4-yl-ethyl) amide] | 55%
Cc1ccc(N2CCN(C(=O)c3noc4c3CN(S(=O)(=O)c3cc(Cl)ccc3Cl)CC4)CC2)c(C)c1 [Example 65, [5-(2,5-dichloro-benzenesulfonyl)-4,5,6,7-tetrahydro-isoxazolo[4,5-c]pyridin-3-yl]-[4-(2,4-dimethyl-phenyl)-piperazin-1-yl]-methanone] | 49%
O=C(c1noc2c1CN(S(=O)(=O)c1cccc(C(F)(F)F)c1)CC2)N(CCc1ccccc1)Cc1ccccc1 [Example 68, 5-(3-trifluoromethyl-benzenesulfonyl)-4,5,6,7-tetrahydro-isoxazolo[4,5-c]pyridine-3-carboxylic acid benzyl-phenethyl amide] | 51%
CN(C)S(=O)(=O)N1CCc2onc(C(=O)NCCc3ccc(Cl)cc3)c2C1 [Example 76, 5-dimethylsulfamoyl-4,5,6,7-tetrahydro-isoxazolo[4,5-c]pyridine-3-carboxylic acid [2-(4-chlorophenyl)-ethyl] amide] | 41%
O=C(NC1CCCC1)c1noc2c1CN(C(=O)COc1ccc(Cl)cc1)CC2 [Example 81, 5-[2-(4-chlorophenoxy)-acetyl]-4,5,6,7-tetrahydro-isoxazolo[4,5-c]pyridine-3-carboxylic acid cyclopentyl amide] | 65%
Cc1ccc(S(=O)(=O)N2CCc3onc(C(=O)N4CCN(CCC5CCCCC5)CC4)c3C2)cc1 [Example 82, [4-(2-cyclohexyl-ethyl)-piperazin-1-yl]-[5-(toluene-4-sulfonyl)-4,5,6,7-tetrahydro-isoxazolo[4,5-c]pyridin-3-yl]-methanone] | 69%
C=CCOc1ccc(CN(Cc2ccco2)C(=O)c2noc3c2CN(S(=O)(=O)c2cccc(C(F)(F)F)c2)CC3)cc1 [Example 87, 5-(3-trifluoromethyl-benzenesulfonyl)-4,5,6,7-tetrahydro-isoxazolo[4,5-c]pyridine-3-carboxylic acid (4-allyloxy-benzyl)-furan-2-ylmethyl amide] | 41%

Source: patent publication US8048879B2, “Substituted 4,5,6,7-tetrahydro-isoxazolo[4,5-c]pyridine compounds and use thereof for producing medicaments” (Gruenenthal GmbH, priority 2005, dated 2011)
